Converted amounts (≈) assume the structure as drawn. The source made the active and inactive calls. No cut-off for these calls is given here.
What was measured:
[1] = Lipophilicity, logD of the compound in 1-octanol and phosphate buffer at pH 7.4 incubated for 3 hrs by shake flask method based LC/MS/MS analysis; format: physicochemical; conditions: 1-octanol/phosphate buffer, pH 7.4
[2] = Metabolic stability in cryopreserved human hepatocytes assessed as intrinsic clearance measured per 10^6 cells at 1 uM after 120 mins by LC-MS/MS analysis; format: ADME, cell-based, Hepatocyte; conditions: hepatocytes, 2 h, 1 µM
[3] = Metabolic stability in cryopreserved human hepatocytes assessed as unbound intrinsic clearance measured per 10^6 cells at 1 uM measured after 120 mins by LC-MS/MS analysis; format: ADME, cell-based, Hepatocyte; conditions: 2 h
[4] = Cytotoxicity against human THP-1 cells assessed as reduction of cell viability incubated for 48 hrs by resazurin reduction assay; format: toxicity, cell-based
Bile salt export pump = Bile salt export pump (Homo sapiens, UniProt O95342); assay: Inhibition of BSEP (unknown origin) by membrane vesicle assay; format: toxicity
[5] = biological target: Voltage-gated inwardly rectifying potassium channel KCNH2 (Homo sapiens, UniProt Q12809); assay: Inhibition of human ERG by automated electrophysiology recording; format: toxicity
IKs channel = assay: Inhibition of human IKS channel by automated electrophysiology recording; format: toxicity
[6] = Genotoxicity in human A549 upto 1000 uM by micronucleus test; format: toxicity, cell-based; conditions: a549, 1000 µM
Relaxin receptor 1 [7] = biological target: T1, Relaxin receptor 1 (Rattus norvegicus, UniProt Q6R6I6); assay: Agonist activity at rat RXFP1 expressed in T-Rex-CHO-K1 cells assessed as stimulation of cAMP production incubated for 60 mins by HTRF assay; format: functional, cell-based
T1 sequence (Q6R6I6 whole entry): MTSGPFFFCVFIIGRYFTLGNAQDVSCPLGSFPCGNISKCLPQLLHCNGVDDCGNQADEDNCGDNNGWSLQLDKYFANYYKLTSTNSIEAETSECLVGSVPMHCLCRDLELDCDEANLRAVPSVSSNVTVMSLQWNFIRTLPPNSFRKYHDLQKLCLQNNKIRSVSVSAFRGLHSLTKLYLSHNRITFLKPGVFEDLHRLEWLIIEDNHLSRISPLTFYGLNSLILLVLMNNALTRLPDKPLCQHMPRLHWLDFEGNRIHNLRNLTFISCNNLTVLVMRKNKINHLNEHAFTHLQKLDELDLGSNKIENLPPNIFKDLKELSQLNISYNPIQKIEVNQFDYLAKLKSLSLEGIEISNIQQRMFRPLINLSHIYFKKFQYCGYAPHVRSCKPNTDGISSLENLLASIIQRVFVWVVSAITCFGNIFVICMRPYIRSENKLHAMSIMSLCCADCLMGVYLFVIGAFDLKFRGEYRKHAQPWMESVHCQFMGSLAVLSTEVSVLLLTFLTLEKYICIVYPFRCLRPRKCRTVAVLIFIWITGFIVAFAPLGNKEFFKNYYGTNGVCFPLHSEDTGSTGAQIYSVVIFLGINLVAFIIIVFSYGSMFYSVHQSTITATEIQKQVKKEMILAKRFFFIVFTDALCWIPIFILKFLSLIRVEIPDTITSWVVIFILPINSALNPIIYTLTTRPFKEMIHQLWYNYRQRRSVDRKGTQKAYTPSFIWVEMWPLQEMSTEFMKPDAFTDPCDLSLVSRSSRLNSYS

[8] = biological target: T2, Relaxin receptor 1 (Rattus norvegicus) (UniProt Q6R6I6); assay: Agonist activity at rat RXFP1 expressed in T-Rex-CHO-K1 cells assessed as stimulation of cAMP production by measuring maximal efficacy incubated for 60 mins by HTRF assay relative to control; format: functional, cell-based; conditions: filed as agonist
T2 sequence (whole entry): T1 sequence (Q6R6I6 whole entry)

[9] = Protein binding in rat plasma assessed as free fraction at 5 uM incubated for 18 hrs by equilibrium dialysis based LC-MS/MS analysis; format: ADME, cell-free
[10] = Metabolic stability in Han Wistar rat hepatocytes assessed as unbound intrinsic clearance measured […] at 1 uM after 120 mins by LC-MS/MS analysis; format: ADME, cell-based, Hepatocyte; conditions: 2 h
[11] = Clearance in Han Wistar rat at 0.73 micromol/kg, iv by LC-MS/MS analysis; format: ADME, organism-based; conditions: in vivo, dose 0.73 µmol/kg
[12] = Solubility of compound in FaSSIF at pH 6.5; format: ADME
[13] = Solubility of compound in phosphate buffer at pH 6.5; format: physicochemical
Relaxin receptor 1 [14] = biological target: T3, Relaxin receptor 1 (Homo sapiens, UniProt Q9HBX9); assay: Agonist activity at human RXFP1 expressed in T-Rex-CHO-K1 cells assessed as stimulation of cAMP production by measuring unbound concentration incubated for 45 mins by HTRF assay
T3 sequence (Q9HBX9 whole entry): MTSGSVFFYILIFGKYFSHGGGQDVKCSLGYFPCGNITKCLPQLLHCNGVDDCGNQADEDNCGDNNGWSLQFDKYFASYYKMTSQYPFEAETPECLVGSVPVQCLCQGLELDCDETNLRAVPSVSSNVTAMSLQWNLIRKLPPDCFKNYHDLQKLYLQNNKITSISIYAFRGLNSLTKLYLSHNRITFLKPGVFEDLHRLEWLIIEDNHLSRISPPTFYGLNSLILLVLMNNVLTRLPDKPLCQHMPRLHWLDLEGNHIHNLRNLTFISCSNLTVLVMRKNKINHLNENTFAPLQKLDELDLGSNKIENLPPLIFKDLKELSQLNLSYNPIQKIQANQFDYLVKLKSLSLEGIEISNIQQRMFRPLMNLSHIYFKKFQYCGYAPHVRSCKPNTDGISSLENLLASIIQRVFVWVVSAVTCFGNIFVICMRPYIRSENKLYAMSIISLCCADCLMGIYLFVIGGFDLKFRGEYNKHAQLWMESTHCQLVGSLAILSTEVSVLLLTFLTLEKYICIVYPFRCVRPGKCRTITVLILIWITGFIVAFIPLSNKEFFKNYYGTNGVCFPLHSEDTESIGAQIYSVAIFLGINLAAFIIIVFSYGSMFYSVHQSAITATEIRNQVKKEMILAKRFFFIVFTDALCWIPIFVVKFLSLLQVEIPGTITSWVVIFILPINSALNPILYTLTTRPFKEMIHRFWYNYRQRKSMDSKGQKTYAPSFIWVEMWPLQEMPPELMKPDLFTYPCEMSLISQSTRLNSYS

[15] = biological target: T2, Relaxin receptor 1 (Rattus norvegicus); assay: Agonist activity at rat RXFP1 expressed in T-Rex-CHO-K1 cells assessed as stimulation of cAMP production by measuring unbound concentration incubated for 60 mins by HTRF assay; format: functional, cell-based; conditions: filed as agonist
[16] = Unbound Cmax in Sprague-Dawley rat at 1.5 mg/kg, iv administered via bolus followed by 9.0 mg/kg, iv administered via infusion for 3 hrs and measured 1 hrs post washout by LC-MS/MS analysis; format: ADME, organism-based; conditions: in vivo
[17] = biological target: T2, Relaxin receptor 1 (Rattus norvegicus); assay: In vivo agonist activity at RXFP1 in Sprague-Dawley rat assessed as hemodynamic effect by measuring increase in heart rate at 1.5 mg/kg, iv administered via bolus followed by 9.0 mg/kg, iv administered via infusion for 3 hrs and measured 1 hrs post washout; format: functional, organism-based
[18] = biological target: T2, Relaxin receptor 1 (Rattus norvegicus); assay: In vivo agonist activity at RXFP1 in Sprague-Dawley rat assessed as hemodynamic effect by measuring increase in blood pressure at 1.5 mg/kg, iv administered via bolus followed by 9.0 mg/kg, iv administered via infusion for 3 hrs and measured 1 hrs post washout; format: functional, organism-based
[19] = Cytotoxicity against human HepG2 cells cultured under galactose condition assessed as reduction in cell viability; format: toxicity, cell-based

Bile salt export pump, sequence (O95342 whole entry): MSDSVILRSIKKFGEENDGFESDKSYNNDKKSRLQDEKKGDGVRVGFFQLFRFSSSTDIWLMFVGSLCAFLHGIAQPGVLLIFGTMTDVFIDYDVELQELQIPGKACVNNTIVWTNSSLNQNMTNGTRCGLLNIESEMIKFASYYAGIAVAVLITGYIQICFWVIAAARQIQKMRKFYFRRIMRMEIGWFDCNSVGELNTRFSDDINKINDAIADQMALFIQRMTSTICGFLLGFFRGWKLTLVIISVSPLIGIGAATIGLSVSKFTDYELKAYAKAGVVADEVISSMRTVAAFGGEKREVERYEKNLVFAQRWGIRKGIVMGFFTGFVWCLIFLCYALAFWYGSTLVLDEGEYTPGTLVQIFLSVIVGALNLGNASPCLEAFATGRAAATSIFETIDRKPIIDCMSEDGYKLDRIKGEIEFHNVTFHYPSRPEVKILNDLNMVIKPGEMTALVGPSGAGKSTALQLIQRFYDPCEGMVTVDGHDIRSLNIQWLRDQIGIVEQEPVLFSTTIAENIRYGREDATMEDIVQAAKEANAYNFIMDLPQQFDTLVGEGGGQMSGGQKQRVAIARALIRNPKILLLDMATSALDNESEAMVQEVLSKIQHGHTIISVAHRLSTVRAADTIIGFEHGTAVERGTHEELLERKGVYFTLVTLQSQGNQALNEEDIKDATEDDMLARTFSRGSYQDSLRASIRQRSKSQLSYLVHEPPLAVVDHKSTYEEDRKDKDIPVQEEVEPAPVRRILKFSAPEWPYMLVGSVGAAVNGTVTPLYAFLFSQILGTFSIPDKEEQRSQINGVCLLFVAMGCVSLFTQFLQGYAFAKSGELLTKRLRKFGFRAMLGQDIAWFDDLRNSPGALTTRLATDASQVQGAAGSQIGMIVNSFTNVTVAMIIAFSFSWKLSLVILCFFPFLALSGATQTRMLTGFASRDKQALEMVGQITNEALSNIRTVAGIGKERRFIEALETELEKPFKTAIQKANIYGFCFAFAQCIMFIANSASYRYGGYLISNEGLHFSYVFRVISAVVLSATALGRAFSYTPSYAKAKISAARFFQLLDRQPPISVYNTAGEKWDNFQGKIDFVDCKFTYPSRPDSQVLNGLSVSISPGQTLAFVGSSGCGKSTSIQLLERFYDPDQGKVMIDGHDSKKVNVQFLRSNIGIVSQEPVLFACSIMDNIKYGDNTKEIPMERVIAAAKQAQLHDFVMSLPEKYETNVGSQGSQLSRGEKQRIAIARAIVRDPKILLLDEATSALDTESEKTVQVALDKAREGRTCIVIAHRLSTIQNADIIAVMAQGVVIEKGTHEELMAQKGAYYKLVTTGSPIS
Voltage-gated inwardly rectifying potassium channel KCNH2, sequence (Q12809 whole entry): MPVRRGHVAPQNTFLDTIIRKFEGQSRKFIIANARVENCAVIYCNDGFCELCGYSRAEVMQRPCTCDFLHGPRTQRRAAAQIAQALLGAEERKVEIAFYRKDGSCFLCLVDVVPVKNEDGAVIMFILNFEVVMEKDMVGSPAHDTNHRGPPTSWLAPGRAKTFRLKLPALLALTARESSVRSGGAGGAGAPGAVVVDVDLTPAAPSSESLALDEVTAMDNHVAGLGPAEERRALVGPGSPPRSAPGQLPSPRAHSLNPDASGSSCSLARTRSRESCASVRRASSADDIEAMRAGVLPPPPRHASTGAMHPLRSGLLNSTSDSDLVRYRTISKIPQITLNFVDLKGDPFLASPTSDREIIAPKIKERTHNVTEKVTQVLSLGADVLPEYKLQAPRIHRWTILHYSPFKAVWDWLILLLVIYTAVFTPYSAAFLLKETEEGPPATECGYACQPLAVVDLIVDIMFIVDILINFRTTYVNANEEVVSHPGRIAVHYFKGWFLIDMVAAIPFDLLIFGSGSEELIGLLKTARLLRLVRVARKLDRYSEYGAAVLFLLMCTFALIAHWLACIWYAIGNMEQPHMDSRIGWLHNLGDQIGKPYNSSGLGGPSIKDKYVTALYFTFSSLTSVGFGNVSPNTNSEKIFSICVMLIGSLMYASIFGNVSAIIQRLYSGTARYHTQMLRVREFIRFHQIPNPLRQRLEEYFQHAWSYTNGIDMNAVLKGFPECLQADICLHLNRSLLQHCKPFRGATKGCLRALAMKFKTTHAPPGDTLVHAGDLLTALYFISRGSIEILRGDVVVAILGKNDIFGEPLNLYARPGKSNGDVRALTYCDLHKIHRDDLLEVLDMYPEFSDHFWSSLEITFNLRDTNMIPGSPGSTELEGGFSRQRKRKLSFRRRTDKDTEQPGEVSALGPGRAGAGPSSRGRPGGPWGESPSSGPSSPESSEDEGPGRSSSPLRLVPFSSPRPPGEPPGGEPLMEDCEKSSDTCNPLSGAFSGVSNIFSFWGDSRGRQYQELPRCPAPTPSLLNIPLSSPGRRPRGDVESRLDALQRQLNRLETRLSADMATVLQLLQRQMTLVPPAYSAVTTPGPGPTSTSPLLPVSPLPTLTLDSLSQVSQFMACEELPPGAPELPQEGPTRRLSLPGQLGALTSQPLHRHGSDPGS

COc1cc(F)c(O[C@H]2CC[C@@](C)(C(=O)O)CC2)cc1C(=O)N[C@@H]1[C@H]2CC[C@H](C2)[C@@H]1C(=O)Nc1ccc(F)c(S(F)(F)(F)(F)F)c1
logD at 3 h [1]: 4.9
CLH [2]: 21 µL/min/1e6 cells
CL free [3]: 2.1 µL/min
IC50 at 48 h [4]: 15 µM
IC50 (Bile salt export pump): 23 µM
IC50 [5]: > 39 µM
IC50 (IKs channel): > 33 µM
Activity [6]: Non-Toxic
EC50 (Relaxin receptor 1 [7]): 0.2 µM
Emax [8]: 139%
fraction unbound at 18 h, 5 µM [9]: 0.0015
CL free [10]: 2.4 µL/min
clearance [11]: 38 mL/min/kg
solubility [12]: 6.3 µM (≈ 4.3 µg/mL)
solubility [13]: 0.13 µM (≈ 0.0887 µg/mL)
EC50 (Relaxin receptor 1 [14]): < 0.0316 nM
fEC50 [15]: 17 nM
fCmax [16]: 10 nM
Activity [17]: Active
Activity [18]: Active
IC50 [19]: 37 µM
